Data taken from ChEMBL document CHEMBL2424555, “Discovery of novel 4-anilinoquinazoline derivatives as potent inhibitors of epidermal growth factor receptor with antitumor activity” (Bioorg Med Chem, 2013).
Calls of active or inactive are those of the source. The rule behind the calls is not given here.

Tests used:
[1] = molecular target: Epidermal growth factor receptor (Homo sapiens, UniProt P00533); assay: Inhibition of recombinant EGFR kinase cytoplasmic domain (unknown origin) expressed in baculovirus expression vector-infected insect sf9 cells assessed as level of autophosphorylation after 10 mins by DELFIA/time-resolved fluorometry
HepG2 = assay: Antiproliferative activity against human HepG2 cells after 48 hrs by MTT assay; type: functional, cell-based; conditions: HepG2, 48 h
A549 [2] = assay: Antiproliferative activity against human A549 cells after 48 hrs by MTT assay; type: functional, cell-based; conditions: A549, 48 h
A549 [3] = assay: Induction of apoptosis in human A549 cells assessed as nuclear convolution and budding off into several fragments at 5 to 20 uM after 24 hrs by Hoechst 33258 staining-based fluorescence microscopy relative to control; type: functional, cell-based
A549 [4] = assay: Induction of apoptosis in human A549 cells assessed as nuclear condensation after 24 hrs by Hoechst 33258 staining-based fluorescence microscopy relative to control; type: functional, cell-based
A549 [5] = assay: Induction of apoptosis in human A549 cells assessed as nuclear convolution and budding off into several fragments after 24 hrs by Hoechst 33258 staining-based fluorescence microscopy relative to control; type: functional, cell-based
A549 [6] = assay: Induction of apoptosis in human A549 cells assessed as nuclear fragmentation after 24 hrs by Hoechst 33258 staining-based fluorescence microscopy relative to control; type: functional, cell-based
A549 [7] = assay: Induction of apoptosis in human A549 cells assessed as nuclear fragmentation at 5 to 20 uM after 24 hrs by Hoechst 33258 staining-based fluorescence microscopy relative to control; type: functional, cell-based
A549 [8] = assay: Induction of apoptosis in human A549 cells assessed as nuclear condensation at 5 to 20 uM after 24 hrs by Hoechst 33258 staining-based fluorescence microscopy relative to control; type: functional, cell-based

Sequence of Epidermal growth factor receptor (P00533 whole entry, the tested form may be a part): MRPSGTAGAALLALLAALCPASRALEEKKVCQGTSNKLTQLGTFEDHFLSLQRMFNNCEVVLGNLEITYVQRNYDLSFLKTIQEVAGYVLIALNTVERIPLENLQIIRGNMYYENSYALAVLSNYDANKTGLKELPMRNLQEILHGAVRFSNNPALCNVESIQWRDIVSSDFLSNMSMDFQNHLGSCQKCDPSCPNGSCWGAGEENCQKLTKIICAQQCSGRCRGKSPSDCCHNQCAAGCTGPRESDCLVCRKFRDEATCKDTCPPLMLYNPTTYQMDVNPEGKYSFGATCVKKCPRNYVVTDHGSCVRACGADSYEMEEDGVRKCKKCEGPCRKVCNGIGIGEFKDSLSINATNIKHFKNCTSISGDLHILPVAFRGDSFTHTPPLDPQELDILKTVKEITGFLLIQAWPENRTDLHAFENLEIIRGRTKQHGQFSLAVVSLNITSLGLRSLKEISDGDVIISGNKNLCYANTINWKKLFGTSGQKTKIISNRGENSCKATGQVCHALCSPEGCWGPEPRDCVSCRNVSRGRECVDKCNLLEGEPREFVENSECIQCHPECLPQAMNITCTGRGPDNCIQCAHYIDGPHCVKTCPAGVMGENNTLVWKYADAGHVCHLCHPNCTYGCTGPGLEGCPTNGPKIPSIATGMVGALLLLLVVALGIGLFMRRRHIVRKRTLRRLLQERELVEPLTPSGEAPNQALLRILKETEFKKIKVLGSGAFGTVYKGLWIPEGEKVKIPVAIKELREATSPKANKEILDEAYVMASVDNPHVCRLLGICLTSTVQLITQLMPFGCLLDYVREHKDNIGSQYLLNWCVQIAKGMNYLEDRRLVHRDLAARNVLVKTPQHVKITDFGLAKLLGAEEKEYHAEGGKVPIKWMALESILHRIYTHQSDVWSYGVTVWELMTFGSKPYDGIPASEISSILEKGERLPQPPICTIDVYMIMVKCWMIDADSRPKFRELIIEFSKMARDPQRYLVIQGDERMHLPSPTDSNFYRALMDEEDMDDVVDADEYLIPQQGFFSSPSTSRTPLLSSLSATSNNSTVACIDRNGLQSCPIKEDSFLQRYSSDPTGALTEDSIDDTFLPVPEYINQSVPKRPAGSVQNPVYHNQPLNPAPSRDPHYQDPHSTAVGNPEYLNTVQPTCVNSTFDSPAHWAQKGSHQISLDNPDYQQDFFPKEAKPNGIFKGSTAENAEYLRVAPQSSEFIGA

IC50 (HepG2) [µM] | IC50 (A549 [2]) [nM] | Structure (SMILES) | IC50 [1] [µM] | further results
4.14 | 2670 | Clc1cccc(Nc2ncnc3ccc(NCc4cccnc4)cc23)c1 | – | –
10.7 | 4160 | O=C(/C=C/c1cccc(Br)n1)Nc1ccc2ncnc(Nc3cccc(Cl)c3)c2c1 | – | –
7.79 | 3350 | O=C(/C=C/c1ncc2ccccc2n1)Nc1ccc2ncnc(Nc3cccc(Cl)c3)c2c1 | – | –
4.82 | 2160 | Cc1cccc(/C=C/C(=O)Nc2ccc3ncnc(Nc4cccc(Cl)c4)c3c2)n1 | – | –
3.63 | 1060 | Cc1cccc(CNc2ccc3ncnc(Nc4cccc(Cl)c4)c3c2)n1 | – | –
7.02 | 3670 | O=C(/C=C/c1c[nH]c2ccccc12)Nc1ccc2ncnc(Nc3cccc(Cl)c3)c2c1 | – | –
7.85 | 4010 | CCCCNc1ccc2ncnc(Nc3cccc(Cl)c3)c2c1 | – | –
5.26 | 2330 | Clc1cccc(Nc2ncnc3ccc(NCc4c[nH]c5ccccc45)cc23)c1 | – | –
5.65 | 1710 | Clc1cccc(Nc2ncnc3ccc(NCc4ncc5ccccc5n4)cc23)c1 | – | –

Structure (SMILES) | IC50 (HepG2) [µM] | IC50 (A549 [2]) [nM] | IC50 [1] [µM] | further results
Clc1cccc(Nc2ncnc3ccc(NCc4cccs4)cc23)c1 | 3.58 | 2080 | 3.4 | –
O=C(/C=C/c1cccs1)Nc1ccc2ncnc(Nc3cccc(Cl)c3)c2c1 | 10.4 | 9310 | 8.8 | –
O=C(/C=C/c1cccnc1)Nc1ccc2ncnc(Nc3cccc(Cl)c3)c2c1 | 9.12 | 4320 | 4.7 | –
Clc1cccc(Nc2ncnc3ccc(NCc4cccc(Br)n4)cc23)c1 | 3.87 | 2950 | 4.1 | –
O=C(/C=C/c1ccc(Br)s1)Nc1ccc2ncnc(Nc3cccc(Cl)c3)c2c1 | 8.85 | 1580 | 2.4 | –
Clc1cccc(Nc2ncnc3ccc(NCc4ccc(Br)s4)cc23)c1 | 3.11 | 820 | 1.5 | Activity (A549 [3]): Active; Activity (A549 [4]): Dose-dependent effect; Activity (A549 [5]): Dose-dependent effect; Activity (A549 [6]): Dose-dependent effect; Activity (A549 [7]): Active; Activity (A549 [8]): Active
O=C(/C=C/c1cccnc1Cl)Nc1ccc2ncnc(Nc3cccc(Cl)c3)c2c1 | 4.42 | 2920 | 3.6 | –
CSCCCNc1ccc2ncnc(Nc3cccc(Cl)c3)c2c1 | 8.92 | 3820 | 5.1 | –
